ChEMBL document CHEMBL1130898, “4-Alkylpiperidines related to SR-48968: potent antagonists of the neurokinin-2 (NK2) receptor” (Bioorg Med Chem Lett, 1998)

Key:
[1] = target: T1, Substance-K receptor (Cavia porcellus) (UniProt Q64077); assay: Inhibition of [beta-Ala]NKA(4-10)-induced contraction of isolated guinea pig trachea; type: functional, tissue-based
T1 sequence (whole entry): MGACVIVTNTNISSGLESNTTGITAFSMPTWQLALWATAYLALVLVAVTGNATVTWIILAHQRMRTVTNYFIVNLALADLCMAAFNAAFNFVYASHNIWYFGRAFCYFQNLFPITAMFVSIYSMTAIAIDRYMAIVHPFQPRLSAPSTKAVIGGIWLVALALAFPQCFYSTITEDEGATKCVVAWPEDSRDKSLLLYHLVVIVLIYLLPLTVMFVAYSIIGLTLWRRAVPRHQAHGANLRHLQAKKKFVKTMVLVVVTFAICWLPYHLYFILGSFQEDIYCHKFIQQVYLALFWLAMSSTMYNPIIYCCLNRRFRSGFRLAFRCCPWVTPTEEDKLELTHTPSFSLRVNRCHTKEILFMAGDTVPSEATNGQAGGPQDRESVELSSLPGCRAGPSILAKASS

[2] = target: T2, Substance-K receptor (Homo sapiens, UniProt P21452); assay: Displacement of [3H]- NKA from human NK-2 receptor expressed in MEL cells; type: cell-based
T2 sequence (P21452 whole entry): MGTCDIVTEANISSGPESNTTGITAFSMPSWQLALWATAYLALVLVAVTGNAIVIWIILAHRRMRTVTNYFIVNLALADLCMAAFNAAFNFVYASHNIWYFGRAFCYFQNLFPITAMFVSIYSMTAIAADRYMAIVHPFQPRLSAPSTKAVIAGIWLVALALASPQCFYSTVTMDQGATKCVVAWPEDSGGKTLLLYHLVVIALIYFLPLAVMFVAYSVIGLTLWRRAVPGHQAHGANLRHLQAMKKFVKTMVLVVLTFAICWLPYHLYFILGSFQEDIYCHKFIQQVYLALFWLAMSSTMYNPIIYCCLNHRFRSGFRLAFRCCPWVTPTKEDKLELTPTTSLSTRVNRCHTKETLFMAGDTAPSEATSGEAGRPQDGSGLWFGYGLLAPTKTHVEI

[3] = tested on: Cavia porcellus; assay: Compound was administered perorally and evaluated for oral activity in neurokinin A-induced guinea pig dyspnea model.; type: functional
[4] = tested on: Cavia porcellus; assay: Compound was administered perorally (po) and evaluated for oral activity in neurokinin A-induced guinea pig dyspnea model at 5 umol/kg dose; type: functional
[5] = tested on: Cavia porcellus; assay: Compound was administered intravenously and evaluated for activity against neurokinin A-induced guinea pig dyspnea model; type: functional; conditions: iv
[6] = tested on: Cavia porcellus; assay: Compound was administered perorally and evaluated for oral activity in neurokinin A-induced guinea pig dyspnea model at 5 umol/Kg dose; type: functional

Compound	pKB [1]	Ki [2]	ED50 [3]	inhibition in vivo at 5 µmol/kg [4]	ED50 [5]	inhibition in vivo at 5 µmol/kg [6]
CC(O)C1CCN(CCC(CN(C)C(=O)c2ccccc2)c2ccc(Cl)c(Cl)c2)CC1 (stereo unspecified)	7.8	33.5 nM				
CC(=O)NC1(c2ccccc2)CCN(CCC(CN(C)C(=O)c2ccccc2)c2ccc(Cl)c(Cl)c2)CC1 (stereo in doubt; 2) [listing 1 of 2 here]	9.2					
CC(=O)NC1(c2ccccc2)CCN(CCC(CN(C)C(=O)c2ccccc2)c2ccc(Cl)c(Cl)c2)CC1 (stereo in doubt; 1) [listing 1 of 2 here]		0.6 nM	1.97 µmol/kg			
CCC(O)(CC)C1CCN(CCC(CN(C)C(=O)c2ccccc2)c2ccc(Cl)c(Cl)c2)CC1 (stereo unspecified)	8.8	3.5 nM		63%		
CC(=O)NC1(c2ccccc2)CCN(CCC(CN(C)C(=O)c2ccccc2)c2ccc(Cl)c(Cl)c2)CC1 (stereo in doubt; 1) [listing 2 of 2 here]	9.1					
CCC(O)C1CCN(CCC(CN(C)C(=O)c2ccccc2)c2ccc(Cl)c(Cl)c2)CC1 (stereo unspecified)	7.9	13.1 nM				
CC(=O)NCCC1CCN(CCC(CN(C)C(=O)c2ccccc2)c2ccc(Cl)c(Cl)c2)CC1 (stereo unspecified)	7.9	66 nM				
CC/C(=N/O)C1CCN(CCC(CN(C)C(=O)c2ccccc2)c2ccc(Cl)c(Cl)c2)CC1 (stereo unspecified)	8.8	2.1 nM				
CN(CC(CCN1CCC(CCO)CC1)c1ccc(Cl)c(Cl)c1)C(=O)c1ccccc1 (stereo unspecified)	8.3	47 nM				7%
CCCC(O)C1CCN(CCC(CN(C)C(=O)c2ccccc2)c2ccc(Cl)c(Cl)c2)CC1 (stereo unspecified)	7.5	3.7 nM				
CC(=O)NC1(c2ccccc2)CCN(CCC(CN(C)C(=O)c2ccccc2)c2ccc(Cl)c(Cl)c2)CC1 (stereo in doubt; 2) [listing 2 of 2 here]		1.75 nM				
CCC(=O)C1CCN(CCC(CN(C)C(=O)c2ccccc2)c2ccc(Cl)c(Cl)c2)CC1 (stereo unspecified)	8.6	9.2 nM				
CC(=O)OCCC1CCN(CCC(CN(C)C(=O)c2ccccc2)c2ccc(Cl)c(Cl)c2)CC1 (stereo unspecified)	7.8					

The remaining molecules from weak to strong by Ki [2], led by results:

pKB [1]	Ki [2]	Compound	ED50 [3]	inhibition in vivo at 5 µmol/kg [4]	ED50 [5]	inhibition in vivo at 5 µmol/kg [6]
8	142 nM	CN(CC(CCN1CCC(CO)CC1)c1ccc(Cl)c(Cl)c1)C(=O)c1ccccc1 (stereo unspecified)				13%
7.5	9.9 nM	CCCC1CCN(CCC(CN(C)C(=O)c2ccccc2)c2ccc(Cl)c(Cl)c2)CC1 (stereo unspecified)				
7.5	7.7 nM	CN(CC(CCN1CCC(C(C)(C)O)CC1)c1ccc(Cl)c(Cl)c1)C(=O)c1ccccc1 (stereo unspecified)				
7.6	6.5 nM	CC/C(=N\OC)C1CCN(CCC(CN(C)C(=O)c2ccccc2)c2ccc(Cl)c(Cl)c2)CC1 (stereo unspecified)				
8.4	4.7 nM	CCCC(O)(CCC)C1CCN(CCC(CN(C)C(=O)c2ccccc2)c2ccc(Cl)c(Cl)c2)CC1 (stereo unspecified)	1.4 µmol/kg		0.54 µmol/kg	
9.1	2.7 nM	CCC(=NO)C1CCN(CCC(CN(C)C(=O)c2ccccc2)c2ccc(Cl)c(Cl)c2)CC1 (stereo unspecified)				
8.8	1.3 nM	CC/C(=N\O)C1CCN(CCC(CN(C)C(=O)c2ccccc2)c2ccc(Cl)c(Cl)c2)CC1 (stereo unspecified)		20%		
8.1	0.84 nM	CCC(O)(CC)C1CCN(CC[C@H](CN(C)C(=O)c2ccccc2)c2ccc(Cl)c(Cl)c2)CC1	3.49 µmol/kg		0.4 µmol/kg	
